The term EC50 denotes the concentration giving half of the maximal effect.

Consider three compounds from US20260337212A1, “IP4-4,6 SUBSTITUTED DERIVATIVE COMPOUNDS FOR USE IN THE TREATMENT, INHIBITION OF PROGRESSION, AND PREVENTION OF ECTOPIC CALCIFICATION” (SANIFIT THERAPEUTICS, S.A., priority 2022, published 2026).

Assay [1] can be described thus: In vitro inhibition of calcium phosphate crystallization in human plasma (spectrophotometric). It counts as biochemical. Conditions: 0-100 μM, 1.5 mM phosphate, 12.5 mM calcium, pH 7.4, 30 min, rt, read-out: Relative Potency (EC50, inhibition of calcium phosphate crystallization). As for the experimental part: The in vitro efficacy of the IP4-4,6 substituted derivatives (e.g., Compounds 1 to 53) of the invention on the inhibition of calcium phosphate crystallization in human plasma samples was evaluated according to a spectrophotometric assay previously described in the art (Ferrer M, et al., Sci Rep 2017; 7:6858, doi:10.1038/s41598-017-07203-x).
A 96-well plate was employed. Plasma was spiked (1 volume of the IP4-4,6 substituted derivatives of the invention per 19 volumes of plasma) with increasing concentrations of the derivatives in the range of 0-100 μM. Plasma was then centrifuged at 10,000 g at rt and subsequently mixed with a mixture of 5 mM hydrogen phosphate and 41.67 mM calcium to attain final concentrations of 1.5 mM phosphate and 12.5 mM calcium, respectively. All reagent solutions were filtered, and pH adjusted to 7.4.
Crystallization of calcium phosphate was monitored spectrophotometrically for 30 min at rt by measuring the increments in absorbance at 550 nm using the Biotek Powerwave XS Microplate spectrophotometer (BioTek Instruments, Inc., Winooski, VT, US). The plate was incubated at rt in an orbital shaker and absorbance measured every 3 min.
Plasma crystallization was assessed based on slope measurement in the linear range between 6 and 24 min from plots of increase in absorbance versus logarithm of time. The efficacy of different myo-inositol phosphates derivatives in preventing in vitro formation of calcium phosphate crystals was assessed in human plasma samples using the slopes obtained between 6- and 24-min. Inhibition of crystallization was measured by comparing the slopes of the control sample (blank plasma) with those of samples containing the inhibitor as shown below: […]

For assay [2], the system named is interstitial cells from aortic human valves (VIC). Description: Calcification of interstitial cells from calcified human aortic valves (Alizarin Red). It is filed as cell-based. Conditions: 1, 3, 10, 30, 100 μM; 3 weeks osteodifferentiation media; FIG. 15. The procedure: Calcification was measured by Alizarin Red staining and quantified spectrophotometrically as relative calcification. Values are shown as dot plots with mean. A one-way ANOVA for parametric distributions (IP6) with DMS post-test statistical analysis was performed. For not normally distributed results (Compound 1, Compound 3, and Compound 6), a nonparametric one-way ANOVA (Kruskal-Wallis test) with Dunn's post-test was applied, p<0.05 was considered statistically significant.
The dose-response efficacy of IP4-4,6 derivatives in the treatment of calcified aortic human valves was analyzed using an in vitro model (Zabirnyk A, et al., Vasc Pharmacol 2019; 122-123, 106583, doi:10.1016/j.vph.2019.106583). The model evaluated the effects of IP6, Compound 1, Compound 3, and Compound 6 on the calcification of interstitial cells from aortic human valves (VIC).
Human calcified aortic valve leaflets were obtained during aortic valve replacement and were harvested. After the removal of the valve endothelial cells, VIC were isolated. The leaflets were placed in 30 mL of basic growth medium (DMEM), supplemented with 10% fetal bovine serum (FBS) and 50 μg/mL gentamycin with the addition of 1 mg/mL collagenase II. The cells were incubated overnight at 37° C. with 5% CO2. Next day, the digested tissue was homogenized by pipetting with a serological pipet and centrifuged at 300 g for 5 min and the supernatant carefully removed by aspiration.
The pellet was washed in 10 mL of fresh DMEM and centrifuged as described previously. The supernatant was removed by aspiration, the cell pellet was resuspended in basic growth media and seeded in […]. VIC were cultured at 37° C. and 5% CO2 with growth media changed twice a week until they reached ~90% confluency. Cells were passaged at ratio of 1:2, propagated and frozen. […]
Alizarin Red staining was performed to assess calcification. […] To quantify calcium accumulation, Alizarin Red staining was extracted and measured spectrophotometrically. […]

Regarding “4,6-O-dipentyl-myo-inositol-1,2,3,5-tetrakis(phosphate) octasodium salt [Compound 1]”, in assay [1], the EC50 was no more than 5 µM. In addition, the “Inhibition of the calcification of VIC” value in assay [2] is “effective in inhibiting the calcification of VIC in vitro in a dose-response manner”.

On to `O=P([O-])([O-])O[C@@H]1[C@@H](OCCCCCO)[C@H](OP(=O)([O-])[O-])[C@H](OP(=O)([O-])[O-])[C@H](OP(=O)([O-])[O-])[C@H]1OCCCCCO.[Na+].[Na+].[Na+].[Na+].[Na+].[Na+].[Na+].[Na+]` [Compound 6, 4,6-O-bis(5-hydroxypentyl)-myo-inositol-1,2,3,5-tetrakis(phosphate) octasodium salt], for which the half-maximal effective concentration (EC50) in assay [1] is no more than 5 µM. Also, the “Inhibition of the calcification of VIC” value in assay [2] is “effective in inhibiting the calcification of VIC in vitro in a dose-response manner”.

With “4,6-O-di(tetradecyl)-myo-inositol-1,2,3,5-tetrakis(phosphate) octasodium salt [Compound 3]”, the EC50 in assay [1] was no more than 5 µM. Also, the “Inhibition of the calcification of VIC” value in assay [2] is “effective in inhibiting the calcification of VIC in vitro in a dose-response manner”.
